Data on two compounds can be found in article PMC6212544, “Identification and Characterization of Novel CFTR Potentiators” (Frontiers in Pharmacology, 2018).

The EC50 is the concentration giving half of the maximal effect.

Format in all cases: cell-based
For one test, the target named is T1, G551D CFTR (Homo sapiens, UniProt P13569, G551D).
T1 construct: expressed in transfected cells; host or cells: HEK293, transient (jetPEI)
Kind of test: YFP halide assay, HEK293 cells expressing G551D CFTR. The following applies: for Efficacy on G551D CFTR relative to VX770: 10 μM forskolin, VX770 = 100; for Additive effect of GLPG1837 and GLPG2451 combined on G551D CFTR: 90 μM each, 1 μM forskolin; for Additive effect to VX770 on G551D CFTR: 90 μM potentiator plus 10 μM VX770, 1 μM forskolin. The procedure: HEK293 cells were transfected with 10–80 ng of plasmid encoding G551D, G178R, G1349D, S549N, R117H, R334W, or wild type CFTR and 20 ng of plasmid encoding YFP (H148Q/I152L/F47L) using jetPEI (Polyplus transfection). Directly after transfection, cells were seeded in black 96-well plates coated with Poly-D-lysine at a density of 70,000 cells per well. The next day, cells were incubated at 27°C for 24 h, for low temperature correction. When evaluating in a chronic setting, the potentiator concentration range was also added to the cells for 24 h. After this incubation period, cells were washed twice with DPBS with Ca^2+ and Mg^2+. Subsequently, […] of potentiator in a volume of 40 μl and incubated at room temperature for 10 min, a timepoint optimized in previous experiments resulting in a good window (positive control/negative control > 2) and signal to background ratio. YFP fluorescence was measured using an EnVision plate reader (PerkinElmer). […] The excitation wavelength was 485 nm and the emission wavelength 530 nm. The capacity of potentiators to increase CFTR channel function was expressed as 1-[fluorescence 7 s after NaI addition (F)/fluorescence before NaI addition (F0)]. Data was normalized using the formula: normalized response = 100^∗ (absolute response – negative control response)/(VX770 response – negative response) as such, VX770 response corresponds to 100. For Dose-response experiments, data was fitted using a 4 parameter hill function of the form Response = Bottom + (Top-Bottom)/(1 + 10ˆ((LogEC50-concentration)^∗HillSlope)) to determine EC50 values.

Test [1] addresses T2, F508del CFTR (Homo sapiens, UniProt P13569, DEL508-508). Kind of test: Patch clamp, inside-out patches of CHO cells expressing F508del CFTR. Further details: expressed in transfected cells; host or cells: CHO cells, transient, pcDNA plasmid. The procedure: A more complete description of the patch-clamp methodology can be found in a recent publication ([Lin et al., 2016]). Briefly, CHO (Chinese Hamster Ovary) cells were transiently transfected with pcDNA plasmids containing various CFTR constructs and pEGFP-C3. After transfection, cells were trypsinized and plated onto 35 mm tissue culture dishes dispersed with sterilized glass chips. Electrophysiological experiments were performed 3–7 days following transfection.
Patch-clamp experiments were performed at room temperature with an EPC-9 patch clamp amplifier (HEKA Instruments, Holliston, MA, United States). Recording microelectrodes were made from borosilicate capillary glass with a two-stage pipette puller (Narishige, Tokyo, Japan). The pipette tip was polished with a home-made microforge before use. The pipette solution contained (in mM) 140 NMDG (N-methyl-d-glucamine)-Cl (Fisher Biotec), 2 MgCl2 (Fisher Biotec, Perth, Australia), 5 CaCl2 (Fisher Biotec), and 10 HEPES (Fisher Biotec), pH 7.4, with NMDG (see [Lin et al., 2016] for details). The pipette resistance when filled with the regular pipette solution was 3–5 MΩ. Once the tip of the pipette and the cell membrane established GΩ resistance, the electrode was quickly pulled away from the cell to form an inside-out patch, where the cytosolic side of the membrane was exposed to the perfusion solution. Cells were perfused with a bath solution having (in mM) 145 NaCl (Fisher Biotec), 5 KCl (Fisher Biotec), 2 MgCl2, 1 CaCl2, 5 glucose (Fisher Biotec), 5 HEPES, and 20 sucrose (Fisher Biotec), pH 7.4, with NaOH (Fisher Biotec). After establishing an inside-out configuration, the patch was perfused with a standard perfusion solution (i.e., intracellular solution) containing (in mM) 150 NMDG-Cl, 2 MgCl2, 10 EGTA (Fisher Biotec), and 8 Tris (Fisher Biotec), pH 7.4, with NMDG (see [Lin et al., 2016] for details) containing the catalytic subunit of protein kinase A (PKA) and 2 mM ATP. Once the phosphorylation-dependent activation of CFTR reached a plateau, 3 μM GLPG1837 or 10 μM GLPG2451 was applied in the continuous presence of 2 mM ATP until a steady state was attained.
Microscopic kinetic analysis was performed with a program provided by Dr. László Csanády (Semmelweis University, Budapest, Hungary) ([Csanády, 2000]). Experiments were performed 4-5 times and averages and SEM were calculated. The resulting Po values and single-channel kinetic parameters were compared with paired t-test (Excel, Microsoft); P < 0.05 is considered statistically significant.
A general note: The patch-clamp technique gives a direct electrical read-out from membranes.

In test [2] the target is T2, F508del CFTR. Kind of test: YFP halide assay, CFBe41o- cells, low temperature rescued F508del CFTR. The note with it: 27°C 24 h, 10 μM forskolin, read-out: EC50, potentiation of low temperature rescued F508del CFTR. The procedure: CFBe41o- cells were plated in black 384-well microplates at a density of 1,500 cells per well. After 24 h, cells were transduced with adenoviruses containing F508del CFTR and YFP (H148Q/I152L/) F47L using a multiplicity of infection of 30 infectious units per cell for each adenovirus. The next day, for the low temperature corrected assay, cells were incubated at 27°C for 24 h, for the chemically corrected assay cells were treated with corrector for 24 h at 37°C. On the day of analysis, cells were washed five times with Dulbecco’s Phosphate-Buffered Saline (DPBS) containing Ca^2+ and Mg^2+ (Life Technologies) using a Microplate Washer (BioTek). Then, cells were treated with 10 μM forskolin and the desired concentration of potentiator in a volume of 30 μl and the plates were incubated at room temperature for 10 min, a timepoint optimized in previous experiments showing good window (positive control/negative control > 2) and signal to background ratio. The YFP fluorescence was recorded for 2 min, starting immediately before addition of 30 μl NaI buffer (375 mM NaI, 7.5 mM KI, 1.76 mM KH2PO4, 10.1 mM Na2HPO4, 13.75 mM glucose) to the wells, using a FDSS/μCell (Hamamatsu) fluorescence reader with a 480 nm excitation filter and a 540 nm emission filter. The capacity of potentiators to increase CFTR channel function was expressed as 1-[fluorescence 36 s after NaI addition (F)/fluorescence before NaI addition (F0)], a timepoint optimized previously, resulting in an optimal signal window. Data was normalized using the formula: normalized response = 100^∗ (absolute response – negative control response)/(VX770 response – negative response) as such, VX770 response corresponds to 100. For Dose-response experiments, data was fitted using a 4 parameter hill function of the form Response = Bottom + (Top-Bottom)/(1 + 10ˆ((LogEC50-concentration)^∗HillSlope)) to determine EC50 values.

T2 sequence (P13569 with tags, fused parts or gaps DEL508-508): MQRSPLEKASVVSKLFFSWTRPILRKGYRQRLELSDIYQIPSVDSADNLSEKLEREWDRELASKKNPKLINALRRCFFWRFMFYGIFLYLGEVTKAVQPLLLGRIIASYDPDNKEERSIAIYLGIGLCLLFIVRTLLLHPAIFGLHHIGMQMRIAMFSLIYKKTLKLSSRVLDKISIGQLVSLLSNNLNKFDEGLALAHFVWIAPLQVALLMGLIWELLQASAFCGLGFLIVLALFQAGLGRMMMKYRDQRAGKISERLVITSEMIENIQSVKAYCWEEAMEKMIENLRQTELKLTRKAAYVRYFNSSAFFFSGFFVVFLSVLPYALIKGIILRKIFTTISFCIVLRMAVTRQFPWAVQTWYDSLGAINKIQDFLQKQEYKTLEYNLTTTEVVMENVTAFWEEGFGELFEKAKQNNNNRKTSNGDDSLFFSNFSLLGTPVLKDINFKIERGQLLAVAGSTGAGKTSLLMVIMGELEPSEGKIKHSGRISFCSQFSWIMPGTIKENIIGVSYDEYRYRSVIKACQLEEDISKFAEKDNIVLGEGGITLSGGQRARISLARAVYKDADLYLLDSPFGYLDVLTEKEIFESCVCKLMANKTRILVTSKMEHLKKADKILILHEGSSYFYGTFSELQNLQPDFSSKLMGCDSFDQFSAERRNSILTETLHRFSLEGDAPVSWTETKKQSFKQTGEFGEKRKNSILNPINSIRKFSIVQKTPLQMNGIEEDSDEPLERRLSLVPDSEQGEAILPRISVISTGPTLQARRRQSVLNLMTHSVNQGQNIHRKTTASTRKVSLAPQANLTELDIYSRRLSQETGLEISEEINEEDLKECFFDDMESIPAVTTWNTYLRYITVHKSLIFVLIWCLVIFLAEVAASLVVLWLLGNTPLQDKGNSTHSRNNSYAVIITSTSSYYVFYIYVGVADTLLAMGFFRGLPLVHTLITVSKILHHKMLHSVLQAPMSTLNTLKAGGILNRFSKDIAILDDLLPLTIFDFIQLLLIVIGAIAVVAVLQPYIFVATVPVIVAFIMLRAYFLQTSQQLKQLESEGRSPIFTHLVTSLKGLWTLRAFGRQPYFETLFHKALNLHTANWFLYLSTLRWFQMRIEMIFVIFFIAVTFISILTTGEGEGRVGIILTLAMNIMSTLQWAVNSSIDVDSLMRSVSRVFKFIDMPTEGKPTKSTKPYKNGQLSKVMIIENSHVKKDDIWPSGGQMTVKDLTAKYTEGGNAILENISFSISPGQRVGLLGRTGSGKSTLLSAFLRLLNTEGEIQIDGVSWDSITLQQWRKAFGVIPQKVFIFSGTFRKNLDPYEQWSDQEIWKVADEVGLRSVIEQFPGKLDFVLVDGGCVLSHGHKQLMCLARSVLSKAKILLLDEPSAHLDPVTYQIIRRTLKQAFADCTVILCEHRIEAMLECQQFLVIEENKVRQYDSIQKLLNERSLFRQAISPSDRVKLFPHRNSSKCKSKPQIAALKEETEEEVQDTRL
T1 sequence (P13569 whole entry G551D): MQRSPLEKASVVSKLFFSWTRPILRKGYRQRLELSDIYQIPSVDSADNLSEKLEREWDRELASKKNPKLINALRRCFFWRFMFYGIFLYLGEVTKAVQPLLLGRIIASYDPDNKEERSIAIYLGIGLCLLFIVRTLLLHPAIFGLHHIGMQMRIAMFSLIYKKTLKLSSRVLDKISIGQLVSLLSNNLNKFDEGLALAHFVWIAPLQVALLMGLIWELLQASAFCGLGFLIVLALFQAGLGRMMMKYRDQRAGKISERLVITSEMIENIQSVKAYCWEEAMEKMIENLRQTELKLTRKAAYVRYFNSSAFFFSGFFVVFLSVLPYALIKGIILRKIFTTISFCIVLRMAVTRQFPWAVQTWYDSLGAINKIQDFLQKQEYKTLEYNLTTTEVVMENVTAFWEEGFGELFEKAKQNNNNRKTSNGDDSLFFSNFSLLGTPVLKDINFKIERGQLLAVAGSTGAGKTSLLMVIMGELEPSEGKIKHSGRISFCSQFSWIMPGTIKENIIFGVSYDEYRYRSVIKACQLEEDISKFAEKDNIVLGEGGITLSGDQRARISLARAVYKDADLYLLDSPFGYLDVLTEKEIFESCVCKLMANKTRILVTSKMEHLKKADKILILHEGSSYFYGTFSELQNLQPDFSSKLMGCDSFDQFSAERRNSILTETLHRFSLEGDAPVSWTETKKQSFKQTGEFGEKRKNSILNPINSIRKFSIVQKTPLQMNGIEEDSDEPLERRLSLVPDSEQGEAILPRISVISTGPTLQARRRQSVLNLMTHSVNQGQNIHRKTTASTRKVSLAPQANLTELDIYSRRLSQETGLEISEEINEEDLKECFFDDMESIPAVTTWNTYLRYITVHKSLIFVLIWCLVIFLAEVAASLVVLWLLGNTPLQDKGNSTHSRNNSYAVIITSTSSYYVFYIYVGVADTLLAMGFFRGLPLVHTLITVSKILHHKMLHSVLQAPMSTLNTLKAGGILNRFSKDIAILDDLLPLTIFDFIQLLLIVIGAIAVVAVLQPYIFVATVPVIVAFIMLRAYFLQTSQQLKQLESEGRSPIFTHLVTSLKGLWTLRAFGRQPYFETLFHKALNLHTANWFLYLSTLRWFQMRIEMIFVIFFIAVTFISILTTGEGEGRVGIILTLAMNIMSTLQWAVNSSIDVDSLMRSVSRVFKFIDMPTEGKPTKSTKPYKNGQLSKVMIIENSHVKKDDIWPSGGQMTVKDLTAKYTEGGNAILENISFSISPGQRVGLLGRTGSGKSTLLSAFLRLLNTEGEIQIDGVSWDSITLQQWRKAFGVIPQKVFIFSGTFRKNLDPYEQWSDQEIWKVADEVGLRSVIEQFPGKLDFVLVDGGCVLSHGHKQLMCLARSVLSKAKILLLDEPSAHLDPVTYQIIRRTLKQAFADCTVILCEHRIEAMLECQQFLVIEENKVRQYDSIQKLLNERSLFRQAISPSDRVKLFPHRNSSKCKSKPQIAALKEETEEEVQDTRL

Consider `C[C@H](O)CNC(=O)c1ncc(S(=O)(=O)c2ccc(OC(F)(F)F)cc2)cc1N` [GLPG2451], for which, at G551D CFTR, the “Efficacy on G551D CFTR relative to VX770” value was 171%; the “Additive effect of GLPG1837 and GLPG2451 combined on G551D CFTR” value is “failed to show any additive effect”; the “Additive effect to VX770 on G551D CFTR” value is on record as “didn’t show any additive effect”. Further, on F508del CFTR [1] (10 μM GLPG2451), the “Closed time constant τc, F508del CFTR” value is given as 4.44 ± 2.23 s and the “Open time constant τo, F508del CFTR” value came out at 5.05 ± 1.82 s. For the same compound, the “Open probability Po, F508del CFTR” value on F508del CFTR [1] (10 μM GLPG2451, pre-potentiator Po 0.05 ± 0.01) turned out to be 0.57 ± 0.05. Further, at F508del CFTR [2], the EC50 was determined as 11.1 ± 3.6 nM.
`CC1(C)Cc2c(sc(NC(=O)c3ccn[nH]3)c2C(N)=O)C(C)(C)O1` [GLPG1837, N-(3-Carbamoyl-5,5,7,7-tetramethyl-5,7-dihydro-4H-thieno[2,3-c]pyran-2-yl)-lH-pyrazole-5-carboxamide]: at G551D CFTR, the “Efficacy on G551D CFTR relative to VX770” value is listed as 260%; the “Additive effect of GLPG1837 and GLPG2451 combined on G551D CFTR” value is “failed to show any additive effect”; the “Additive effect to VX770 on G551D CFTR” value was “didn’t show any additive effect”. Besides, on F508del CFTR [1] (3 μM GLPG1837), the “Closed time constant τc, F508del CFTR” value is 2.18 ± 0.52 s and the “Open time constant τo, F508del CFTR” value turned out to be 3.29 ± 0.82 s. The “Open probability Po, F508del CFTR” value at F508del CFTR [1] (3 μM GLPG1837, pre-potentiator Po 0.04 ± 0.01) was 0.55 ± 0.05. Besides, on F508del CFTR [2], the EC50 stood at 3.5 ± 0.2 nM.
